Consider two molecules from patent publication US20240131022A1 (published 2024).

A short description of data set [1]: Stability in brain homogenate. To be noted: within the time frame of the study.
Another data set has as its target k-receptor (Homo sapiens, UniProt P41145). As to the kind of experiment: cell-based. The settings on record: read-out: k-receptor activation (IC50 or %).
Another data set addresses μ-receptor (Homo sapiens, UniProt P35372). Put plainly: cell-based.
The target of a further data set is δ-receptor (Homo sapiens, UniProt P41143). As to the kind of experiment: Functional profile in CHO transfected cells, δ-receptor inhibition. The class given is cell-based.
Chain of δ-receptor (P41143 whole entry): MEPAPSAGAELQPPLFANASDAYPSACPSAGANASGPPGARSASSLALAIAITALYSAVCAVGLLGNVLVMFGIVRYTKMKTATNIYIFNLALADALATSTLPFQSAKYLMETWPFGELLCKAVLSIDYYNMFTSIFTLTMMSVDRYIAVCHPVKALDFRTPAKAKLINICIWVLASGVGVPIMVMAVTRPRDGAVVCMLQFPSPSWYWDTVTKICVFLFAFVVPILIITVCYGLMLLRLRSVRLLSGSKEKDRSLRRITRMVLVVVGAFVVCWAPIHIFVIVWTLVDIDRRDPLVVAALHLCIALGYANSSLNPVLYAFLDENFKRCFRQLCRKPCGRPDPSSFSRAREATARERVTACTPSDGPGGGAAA

Chain of μ-receptor (P35372 whole entry): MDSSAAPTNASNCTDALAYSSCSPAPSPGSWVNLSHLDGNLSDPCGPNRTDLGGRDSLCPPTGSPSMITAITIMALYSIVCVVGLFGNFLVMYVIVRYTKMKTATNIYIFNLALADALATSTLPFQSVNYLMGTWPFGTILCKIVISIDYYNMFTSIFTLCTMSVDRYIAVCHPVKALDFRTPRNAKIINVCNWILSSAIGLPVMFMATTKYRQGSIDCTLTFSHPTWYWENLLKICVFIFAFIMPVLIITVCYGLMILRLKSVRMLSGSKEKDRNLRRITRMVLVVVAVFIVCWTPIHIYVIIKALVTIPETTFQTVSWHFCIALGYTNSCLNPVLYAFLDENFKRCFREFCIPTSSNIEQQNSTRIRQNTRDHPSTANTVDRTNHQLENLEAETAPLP
Chain of k-receptor (P41145 whole entry): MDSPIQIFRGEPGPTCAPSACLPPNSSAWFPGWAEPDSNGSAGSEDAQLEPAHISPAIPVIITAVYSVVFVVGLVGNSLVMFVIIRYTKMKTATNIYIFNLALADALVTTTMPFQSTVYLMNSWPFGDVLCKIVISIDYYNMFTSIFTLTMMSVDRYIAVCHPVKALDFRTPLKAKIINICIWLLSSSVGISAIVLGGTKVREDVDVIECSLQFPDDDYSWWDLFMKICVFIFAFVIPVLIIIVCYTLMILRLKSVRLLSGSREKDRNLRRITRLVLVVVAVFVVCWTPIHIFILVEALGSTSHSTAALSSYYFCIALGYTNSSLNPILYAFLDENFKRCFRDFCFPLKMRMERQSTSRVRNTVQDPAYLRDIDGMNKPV

By inhibition is commonly meant the drop in the measured response relative to a control, in per cent. The term IC50 denotes the concentration needed to halve the response being measured. A lower IC50 goes with inhibition by little substance. Consider `C/C=C/C=C/C(=O)Oc1ccc2c3c1OC1C(O)CCC4(O)C(C2)N(CC2CCC2)CCC314` (stereo not shown) [NB33, 3-hexadienoate derivative of nalbuphine], for which the “intact in brain homogenate” value in data set [1] is recorded as 65±6%. In addition, at k-receptor, the activation at 1 µM turned out to be 22.3%. At μ-receptor (read-out: μ-receptor inhibition (IC50 or %)), the inhibition at 1 µM came out at 82.8%. Moreover, at δ-receptor, the IC50 is over 10 µM.

`C=CCN1CCC23c4c5ccc(OC(=O)/C=C/C=C/C)c4OC2C(=O)CCC3(O)C1C5` (stereo not shown) [NX90, 3-hexadienoate derivative of naloxone]: the “intact in brain homogenate” value in data set [1] came to 85±13%. In addition, the values for the IC50 at μ-receptor and against δ-receptor were 0.137 ± 0.012 µM and over 10 µM, respectively.
